The values below come from publication PMC8488497, “In silico and in vitro analysis of an Aspergillus niger chitin deacetylase to decipher its subsite sugar preferences” (The Journal of Biological Chemistry, 2021).

SMILES strings stand for the structures.

The target of this assay is T1, AngCDA (Aspergillus niger, UniProt A2QZC8).
T1 construct: gene An12g04480; signal peptide (residues 1-19) removed; N- and C-terminal Strep-tag II; E. coli Rosetta 2 (DE3); monomer; the crystal used a pelB / C-terminal Strep-tag II construct
T1 sequence (A2QZC8 20-239): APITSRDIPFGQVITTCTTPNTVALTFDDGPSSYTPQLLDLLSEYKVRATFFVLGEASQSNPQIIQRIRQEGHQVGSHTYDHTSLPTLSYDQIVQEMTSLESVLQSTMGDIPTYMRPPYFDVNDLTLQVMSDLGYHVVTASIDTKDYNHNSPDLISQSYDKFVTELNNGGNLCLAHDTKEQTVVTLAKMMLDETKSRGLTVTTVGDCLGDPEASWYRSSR
Nature of the assay: HILIC-ESI-MS product quantification and sequencing. The format is biochemical. The following applies: deacetylation; 0.5 mM substrate, 50 mM TEA pH 7, 37 °C.

Regarding `CC(=O)N[C@H]1[C@H](O[C@H]2[C@H](O)[C@@H](NC(C)=O)[C@H](O[C@H]3[C@H](O)[C@@H](NC(C)=O)C(O)O[C@@H]3CO)O[C@@H]2CO)O[C@H](CO)[C@@H](O[C@@H]2O[C@H](CO)[C@@H](O[C@@H]3O[C@H](CO)[C@@H](O)[C@H](O)[C@H]3NC(C)=O)[C@H](O)[C@H]2NC(C)=O)[C@@H]1O` (some centres unmarked) [A5], the “HILIC-ESI-MS product quantification and sequencing” value is listed as “mode of action of AngCDA deacetylating chitopentaose (A5)”. Then `CC(=O)N[C@H]1[C@H](O[C@H]2[C@H](O)[C@@H](NC(C)=O)C(O)O[C@@H]2CO)O[C@H](CO)[C@@H](O[C@@H]2O[C@H](CO)[C@@H](O[C@@H]3O[C@H](CO)[C@@H](O)[C@H](O)[C@H]3NC(C)=O)[C@H](O)[C@H]2NC(C)=O)[C@@H]1O` (some centres unmarked) [A4, chitotetraose], with “mode of action of AngCDA deacetylating chitotetraose (A4)”.
